Test results as given in ChEMBL document CHEMBL4420075, “Seriniquinones, melanoma-specific anticancer agents” (2016).

Key:
Assay type in all cases: functional
HCT-116 = experiment: Growth inhibition of human HCT116 cells assessed as cell growth incubated for 48 hrs by sulforhodamine B assay; parameters: concentration or dose not given beside the values
MOLT-4 = experiment: Growth inhibition of human MOLT4 cells assessed as cell growth incubated for 48 hrs by sulforhodamine B assay; parameters: concentration or dose not given beside the values
MCF7 = experiment: Growth inhibition of human MCF7 cells assessed as cell growth incubated for 48 hrs by sulforhodamine B assay; parameters: concentration or dose not given beside the values
HCC 2998 = experiment: Growth inhibition of human HCC2998 cells assessed as cell growth incubated for 48 hrs by sulforhodamine B assay; parameters: concentration or dose not given beside the values
NCI-H460 = experiment: Growth inhibition of human NCI-H460 cells assessed as cell growth incubated for 48 hrs by sulforhodamine B assay; parameters: concentration or dose not given beside the values
HOP-92 = experiment: Growth inhibition of human HOP92 cells assessed as cell growth incubated for 48 hrs by sulforhodamine B assay; parameters: concentration or dose not given beside the values
SK-MEL-5 = experiment: Growth inhibition of human SK-MEL-5 cells assessed as cell growth incubated for 48 hrs by sulforhodamine B assay; parameters: concentration or dose not given beside the values
SF-539 = experiment: Growth inhibition of human SF539 cells assessed as cell growth incubated for 48 hrs by sulforhodamine B assay; parameters: scale not given: the % may be the effect or the level left
HCT-15 = experiment: Growth inhibition of human HCT15 cells assessed as cell growth incubated for 48 hrs by sulforhodamine B assay; parameters: scale not given: the % may be the effect or the level left
TK-10 = experiment: Growth inhibition of human TK10 cells assessed as cell growth incubated for 48 hrs by sulforhodamine B assay; parameters: concentration or dose not given beside the values
SR = experiment: Growth inhibition of human SR cells assessed as cell growth incubated for 48 hrs by sulforhodamine B assay; parameters: concentration or dose not given beside the values
PC-3 = experiment: Growth inhibition of human PC3 cells assessed as cell growth incubated for 48 hrs by sulforhodamine B assay; parameters: concentration or dose not given beside the values
UACC-62 = experiment: Growth inhibition of human UACC62 cells assessed as cell growth incubated for 48 hrs by sulforhodamine B assay; parameters: concentration or dose not given beside the values
LOX IMVI = experiment: Growth inhibition of human LOXIMVI cells assessed as cell growth incubated for 48 hrs by sulforhodamine B assay; parameters: concentration or dose not given beside the values
NCI-H322M = experiment: Growth inhibition of human NCI-H322M cells assessed as cell growth incubated for 48 hrs by sulforhodamine B assay; parameters: scale not given: the % may be the effect or the level left
SF-268 = experiment: Growth inhibition of human SF268 cells assessed as cell growth incubated for 48 hrs by sulforhodamine B assay; parameters: concentration or dose not given beside the values
MDA-MB-231 = experiment: Growth inhibition of human MDA-MB-231 cells assessed as cell growth incubated for 48 hrs by sulforhodamine B assay; parameters: concentration or dose not given beside the values
NCI-H23 = experiment: Growth inhibition of human NCI-H23 cells assessed as cell growth incubated for 48 hrs by sulforhodamine B assay; parameters: concentration or dose not given beside the values
NCI-H522 = experiment: Growth inhibition of human NCI-H522 cells assessed as cell growth incubated for 48 hrs by sulforhodamine B assay; parameters: concentration or dose not given beside the values
T47D = experiment: Growth inhibition of human T47D cells assessed as cell growth incubated for 48 hrs by sulforhodamine B assay; parameters: concentration or dose not given beside the values
MDA-MB-468 = experiment: Growth inhibition of human MDA-MB-468 cells assessed as cell growth incubated for 48 hrs by sulforhodamine B assay; parameters: concentration or dose not given beside the values
NCI/ADR-RES = experiment: Growth inhibition of human NCI/ADR-RES cells assessed as cell growth incubated for 48 hrs by sulforhodamine B assay; parameters: concentration or dose not given beside the values
A498 = experiment: Growth inhibition of human A498 cells assessed as cell growth incubated for 48 hrs by sulforhodamine B assay; parameters: concentration or dose not given beside the values
786-0 = experiment: Growth inhibition of human 786-0 cells assessed as cell growth incubated for 48 hrs by sulforhodamine B assay; parameters: concentration or dose not given beside the values
OVCAR-4 = experiment: Growth inhibition of human OVCAR4 cells assessed as cell growth incubated for 48 hrs by sulforhodamine B assay; parameters: concentration or dose not given beside the values
U-251 = experiment: Growth inhibition of human U251 cells assessed as cell growth incubated for 48 hrs by sulforhodamine B assay; parameters: concentration or dose not given beside the values
OVCAR-3 = experiment: Growth inhibition of human OVCAR3 cells assessed as cell growth incubated for 48 hrs by sulforhodamine B assay; parameters: concentration or dose not given beside the values
KM12 = experiment: Growth inhibition of human KM12 cells assessed as cell growth incubated for 48 hrs by sulforhodamine B assay; parameters: concentration or dose not given beside the values
COLO 205 = experiment: Growth inhibition of human COLO205 cells assessed as cell growth incubated for 48 hrs by sulforhodamine B assay; parameters: concentration or dose not given beside the values
M14 = experiment: Growth inhibition of human M14 cells assessed as cell growth incubated for 48 hrs by sulforhodamine B assay; parameters: concentration or dose not given beside the values
SK-MEL-28 = experiment: Growth inhibition of human SK-MEL-28 cells assessed as cell growth incubated for 48 hrs by sulforhodamine B assay; parameters: concentration or dose not given beside the values
SNB-75 = experiment: Growth inhibition of human SNB75 cells assessed as cell growth incubated for 48 hrs by sulforhodamine B assay; parameters: concentration or dose not given beside the values
RPMI-8226 = experiment: Growth inhibition of human RPMI8226 cells assessed as cell growth incubated for 48 hrs by sulforhodamine B assay; parameters: concentration or dose not given beside the values
DU-145 = experiment: Growth inhibition of human DU145 cells assessed as cell growth incubated for 48 hrs by sulforhodamine B assay; parameters: concentration or dose not given beside the values
SK-MEL-2 = experiment: Growth inhibition of human SK-MEL-2 cells assessed as cell growth incubated for 48 hrs by sulforhodamine B assay; parameters: concentration or dose not given beside the values
K562 = experiment: Growth inhibition of human K562 cells assessed as cell growth incubated for 48 hrs by sulforhodamine B assay; parameters: concentration or dose not given beside the values
ACHN = experiment: Growth inhibition of human ACHN cells assessed as cell growth incubated for 48 hrs by sulforhodamine B assay; parameters: scale not given: the % may be the effect or the level left
CAKI-1 = experiment: Growth inhibition of human Caki1 cells assessed as cell growth incubated for 48 hrs by sulforhodamine B assay; parameters: concentration or dose not given beside the values
OVCAR-8 = experiment: Growth inhibition of human OVCAR8 cells assessed as cell growth incubated for 48 hrs by sulforhodamine B assay; parameters: concentration or dose not given beside the values
UACC-257 = experiment: Growth inhibition of human UACC257 cells assessed as cell growth incubated for 48 hrs by sulforhodamine B assay; parameters: concentration or dose not given beside the values
Malme-3M = experiment: Growth inhibition of human MALME-3M cells assessed as cell growth incubated for 48 hrs by sulforhodamine B assay; parameters: scale not given: the % may be the effect or the level left
NCI-H226 = experiment: Growth inhibition of human NCI-H226 cells assessed as cell growth incubated for 48 hrs by sulforhodamine B assay; parameters: concentration or dose not given beside the values
HL-60(TB) = experiment: Growth inhibition of human HL-60(TB) cells assessed as cell growth incubated for 48 hrs by sulforhodamine B assay; parameters: concentration or dose not given beside the values
BT-549 = experiment: Growth inhibition of human BT549 cells assessed as cell growth incubated for 48 hrs by sulforhodamine B assay; parameters: concentration or dose not given beside the values
Hs-578T = experiment: Growth inhibition of human Hs 578T cells assessed as cell growth incubated for 48 hrs by sulforhodamine B assay; parameters: concentration or dose not given beside the values
SK-OV-3 = experiment: Growth inhibition of human SKOV3 cells assessed as cell growth incubated for 48 hrs by sulforhodamine B assay; parameters: concentration or dose not given beside the values
SF-295 = experiment: Growth inhibition of human SF295 cells assessed as cell growth incubated for 48 hrs by sulforhodamine B assay; parameters: concentration or dose not given beside the values
CCRF-CEM = experiment: Growth inhibition of human CCRF-CEM cells assessed as cell growth incubated for 48 hrs by sulforhodamine B assay; parameters: concentration or dose not given beside the values
RXF 393 = experiment: Growth inhibition of human RXF393 cells assessed as cell growth incubated for 48 hrs by sulforhodamine B assay; parameters: concentration or dose not given beside the values
SN12C = experiment: Growth inhibition of human SN12C cells assessed as cell growth incubated for 48 hrs by sulforhodamine B assay; parameters: concentration or dose not given beside the values
OVCAR-5 = experiment: Growth inhibition of human OVCAR5 cells assessed as cell growth incubated for 48 hrs by sulforhodamine B assay; parameters: scale not given: the % may be the effect or the level left
HT-29 = experiment: Growth inhibition of human HT-29 cells assessed as cell growth incubated for 48 hrs by sulforhodamine B assay; parameters: concentration or dose not given beside the values
UO-31 = experiment: Growth inhibition of human UO31 cells assessed as cell growth incubated for 48 hrs by sulforhodamine B assay; parameters: concentration or dose not given beside the values
HOP-62 = experiment: Growth inhibition of human HOP62 cells assessed as cell growth incubated for 48 hrs by sulforhodamine B assay; parameters: concentration or dose not given beside the values
A549 = experiment: Growth inhibition of human A549/ATCC cells assessed as cell growth incubated for 48 hrs by sulforhodamine B assay; parameters: concentration or dose not given beside the values
MDA-MB-435 = experiment: Growth inhibition of human MDA-MB-435 cells assessed as cell growth incubated for 48 hrs by sulforhodamine B assay; parameters: concentration or dose not given beside the values
SNB-19 = experiment: Growth inhibition of human SNB19 cells assessed as cell growth incubated for 48 hrs by sulforhodamine B assay; parameters: concentration or dose not given beside the values
SW-620 = experiment: Growth inhibition of human SW620 cells assessed as cell growth incubated for 48 hrs by sulforhodamine B assay; parameters: concentration or dose not given beside the values

Work on NCC1CN(C(=O)CCc2ccc3c(=O)c4sc5c(=O)c6ccccc6c(=O)c5c4c(=O)c3c2)C1.O=C(O)C(F)(F)F yielded an Activity (HCT-116) of -80.84%, an Activity (MOLT-4) of -36.2% and an Activity (MCF7) of -58.78%. The Activity (HCC 2998) was -90.76%, the Activity (NCI-H460) was -52.32% and the Activity (HOP-92) was -32.93%. The Activity (SK-MEL-5) was -98.07%, the Activity (SF-539) was -99.46% and the Activity (HCT-15) was -61.54%. It also gave an Activity (TK-10) of -89.49%, an Activity (SR) of -25% and an Activity (PC-3) of -79.46%. The Activity (UACC-62) was -88.01%, the Activity (LOX IMVI) was -82.6% and the Activity (NCI-H322M) was -97.48%. The Activity (SF-268) was -57.54%, the Activity (MDA-MB-231) was -15.99% and the Activity (NCI-H23) was -50.82%. It also gave an Activity (NCI-H522) of -72.26%, an Activity (T47D) of -51.1% and an Activity (MDA-MB-468) of -83.65%. It also gave an Activity (NCI/ADR-RES) of -15.35%, an Activity (A498) of -87.3% and an Activity (786-0) of -95.07%. The Activity (OVCAR-4) was -71.07%, the Activity (U-251) was -92.83% and the Activity (OVCAR-3) was -68.52%. It also gave an Activity (KM12) of -76.76%, an Activity (COLO 205) of -91.79% and an Activity (M14) of -93.82%. The Activity (SK-MEL-28) was -96.8%, the Activity (SNB-75) was -95.74% and the Activity (RPMI-8226) was -39.84%. It also gave an Activity (DU-145) of -94.41%, an Activity (SK-MEL-2) of -72.32% and an Activity (K562) of -59.88%. For the same molecule, the Activity (ACHN) was -96.22%, the Activity (CAKI-1) was -78.75% and the Activity (OVCAR-8) was -38.88%. It also gave an Activity (UACC-257) of -92.08%, an Activity (Malme-3M) of -93.22% and an Activity (NCI-H226) of -49.62%. It also gave an Activity (HL-60(TB)) of -46.78%, an Activity (BT-549) of -96.67% and an Activity (Hs-578T) of 1.09%. For the same molecule, the Activity (SK-OV-3) was -97.49%, the Activity (SF-295) was -92.59% and the Activity (CCRF-CEM) was -29.57%. The Activity (RXF 393) was -77.25%, the Activity (SN12C) was -69% and the Activity (OVCAR-5) was -85.63%. For the same molecule, the Activity (HT-29) was -46.19%, the Activity (UO-31) was -96.98% and the Activity (HOP-62) was -90.94%. It also gave an Activity (A549) of -55.33%, an Activity (MDA-MB-435) of -93.07% and an Activity (SNB-19) of -98.59%. For the same molecule, the Activity (SW-620) was -60.32%.
